Laboratory results reported in patent US20150344457A1, “METHODS OF INHIBITING PRMT5” (EPIZYME, INC., priority 2012, published 2015).

How the values were obtained:
[1] = target: T1, PRMT5/MEP50 (Homo sapiens, UniProt O14744); assay: PRMT5 Biochemical Assay (PRMT5/MEP50 enzyme assay on peptide substrate, 3H-SAM Flashplate); details: Table D-2; read-out: Biochemical IC50
T1 construct: Expressed full-length human Flag-PRMT5/6His-MeP50 protein complex was purified; made in house; host or cells: Spodoptera frugiperda (SF9) insect cells, baculovirus (pDEST8)
T1 sequence (O14744 with tags, fused parts or gaps): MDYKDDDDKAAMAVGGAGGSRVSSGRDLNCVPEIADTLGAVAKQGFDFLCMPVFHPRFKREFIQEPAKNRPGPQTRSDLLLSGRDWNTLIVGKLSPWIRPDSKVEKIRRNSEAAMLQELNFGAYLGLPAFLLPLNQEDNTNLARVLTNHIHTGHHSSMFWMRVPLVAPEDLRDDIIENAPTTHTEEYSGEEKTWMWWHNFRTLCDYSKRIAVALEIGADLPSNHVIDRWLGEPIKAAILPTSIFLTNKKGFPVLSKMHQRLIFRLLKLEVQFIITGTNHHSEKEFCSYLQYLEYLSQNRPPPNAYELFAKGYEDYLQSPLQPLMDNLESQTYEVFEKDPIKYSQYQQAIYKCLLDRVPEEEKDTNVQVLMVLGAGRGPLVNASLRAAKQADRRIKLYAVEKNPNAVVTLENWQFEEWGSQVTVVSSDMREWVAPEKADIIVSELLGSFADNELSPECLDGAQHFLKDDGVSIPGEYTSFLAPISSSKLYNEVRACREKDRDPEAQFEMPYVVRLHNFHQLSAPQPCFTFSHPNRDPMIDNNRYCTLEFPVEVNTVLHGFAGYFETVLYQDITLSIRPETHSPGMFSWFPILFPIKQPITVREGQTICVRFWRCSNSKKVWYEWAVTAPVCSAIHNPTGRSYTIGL
T1 sequence (Q9BQA1 with tags, fused parts or gaps partner limits assumed): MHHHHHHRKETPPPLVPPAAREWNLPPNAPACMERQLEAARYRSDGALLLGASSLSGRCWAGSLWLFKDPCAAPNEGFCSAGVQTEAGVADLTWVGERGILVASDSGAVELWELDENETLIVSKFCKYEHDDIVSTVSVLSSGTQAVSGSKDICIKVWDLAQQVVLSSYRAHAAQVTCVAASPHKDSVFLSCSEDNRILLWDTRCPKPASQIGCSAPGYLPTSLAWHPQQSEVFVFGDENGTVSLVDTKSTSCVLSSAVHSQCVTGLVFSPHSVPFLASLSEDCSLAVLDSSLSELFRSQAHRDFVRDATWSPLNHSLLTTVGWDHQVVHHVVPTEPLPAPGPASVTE

[2] = test system: Z-138 cells; assay: Z-138 Proliferation Assay (Cell Titer Glo, 5 days); type: cell-based; details: Homo sapiens, Table D-2
Summary of the method: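 Exponentially growing Z-138 cells (10,000 cells/ml) in RPMI 1640 with 10% FBS are exposed to nine-point 3-fold dilutions (final top concentration 20 μM, 0.2% DMSO) for 5 days at 37° C. Viability is measured as ATP by CellTiter-Glo luminescence. The 50% inhibitory concentration comes from a 4-parameter fit.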

| IC50 [1] | SMILES | EC50 [2] |
| --- | --- | --- |
| 101 to 1000 nM | CS(=O)(=O)Nc1ccc(-c2cccc(OCC(O)CN3CCc4ccccc4C3)c2)cc1 (centres unmarked) [Compound D129] | 10000 to 40000 nM |
| 101 to 1000 nM | CS(=O)(=O)c1cccc(-c2cccc(OCC(O)CN3CCc4ccccc4C3)c2)c1 (centres unmarked) [Compound D130] | > 20000 nM |
| 101 to 1000 nM | CS(=O)(=O)c1ccccc1-c1cccc(OCC(O)CN2CCc3ccccc3C2)c1 (centres unmarked) [Compound D131] | > 20000 nM |
| 101 to 1000 nM | COC(=O)c1cccc(-c2cccc(OCC(O)CN3CCc4ccccc4C3)c2)c1 (centres unmarked) [Compound D135] | > 20000 nM |
| 101 to 1000 nM | CC(=O)c1ccc(-c2cccc(OCC(O)CN3CCc4ccccc4C3)c2)cc1 (centres unmarked) [Compound D137] | > 20000 nM |
| 101 to 1000 nM | Cn1ccc2ccc(-c3cccc(OCC(O)CN4CCc5ccccc5C4)c3)cc21 (centres unmarked) [Compound D147] | 10000 to 40000 nM |
| 101 to 1000 nM | O=C1NCc2ccc(-c3cccc(OCC(O)CN4CCc5ccccc5C4)c3)cc21 (centres unmarked) [Compound D148] | 10000 to 40000 nM |
| 101 to 1000 nM | CN(C)c1ccc(-c2cccc(OCC(O)CN3CCc4ccccc4C3)c2)cc1 (centres unmarked) [Compound D151] | > 20000 nM |
| 101 to 1000 nM | NC(=O)c1ccc(-c2cccc(OCC(O)CN3CCc4ccccc4C3)c2)cc1 (centres unmarked) [Compound D152] | > 20000 nM |
| 101 to 1000 nM | O=C1COc2ccc(-c3cccc(OCC(O)CN4CCc5ccccc5C4)c3)cc2N1 (centres unmarked) [Compound D156] | 10000 to 40000 nM |

Continued, compound first:

| SMILES | IC50 [1] | EC50 [2] |
| --- | --- | --- |
| Cn1cnc2ccc(-c3ccnc(NCC(O)CN4CCc5ccccc5C4)c3)cc21 (centres unmarked) [Compound D118] | < 100 nM | 1000 to 10000 nM |
| Cn1cnc2ccc(-c3ccnc(NCC(O)CN4CCc5ccccc5C4)n3)cc21 (centres unmarked) [Compound D119] | 101 to 1000 nM | 1000 to 10000 nM |
| Cn1cnc2ccc(-c3cncc(NCC(O)CN4CCc5ccccc5C4)n3)cc21 (centres unmarked) [Compound D121] | 101 to 1000 nM | > 20000 nM |
| OC(COc1cccc(-c2ccc(C(F)(F)F)cc2C(F)(F)F)c1)CN1CCc2ccccc2C1 (centres unmarked) [Compound D124] | 101 to 1000 nM | > 20000 nM |
| CN(C)c1ncc(-c2cccc(OCC(O)CN3CCc4ccccc4C3)c2)cn1 (centres unmarked) [Compound D125] | 101 to 1000 nM | 10000 to 40000 nM |
| O=C(c1cccc(-c2cccc(OCC(O)CN3CCc4ccccc4C3)c2)c1)N1CCOCC1 (centres unmarked) [Compound D126] | 101 to 1000 nM | > 20000 nM |
| OC(COc1cccc(-c2ccc(C(F)(F)F)cc2Cl)c1)CN1CCc2ccccc2C1 (centres unmarked) [Compound D127] | 101 to 1000 nM | > 20000 nM |
| OC(COc1cccc(-c2ccccc2C(F)(F)F)c1)CN1CCc2ccccc2C1 (centres unmarked) [Compound D132] | 101 to 1000 nM | > 20000 nM |
| COc1ccc(Cl)cc1-c1cccc(OCC(O)CN2CCc3ccccc3C2)c1 (centres unmarked) [Compound D134] | 101 to 1000 nM | > 20000 nM |
| Cn1ncc2ccc(-c3cc(COCC(O)CN4CCc5ccccc5C4)on3)cc21 (centres unmarked) [Compound D136] | 101 to 1000 nM | > 20000 nM |
| Cc1ccc(F)c(-c2cccc(OCC(O)CN3CCc4ccccc4C3)c2)c1 (centres unmarked) [Compound D138] | 101 to 1000 nM | > 20000 nM |
| OC(COc1cccc(-c2cccnc2F)c1)CN1CCc2ccccc2C1 (centres unmarked) [Compound D139] | 101 to 1000 nM | > 20000 nM |
| Cn1ccc2cnc(-c3cccc(OCC(O)CN4CCc5ccccc5C4)c3)nc21 (centres unmarked) [Compound D141] | < 100 nM | > 20000 nM |
| O=C(Nc1cccc(OCC(O)CN2CCc3ccccc3C2)c1)c1cnccn1 (centres unmarked) [Compound D145] | 101 to 1000 nM | > 20000 nM |
| CN1CCN(c2ccc(-c3cccc(OCC(O)CN4CCc5ccccc5C4)c3)cn2)CC1 (centres unmarked) [Compound D149] | 101 to 1000 nM | 1000 to 10000 nM |
| CC(C)(C)OCc1cccc(-c2cccc(OCC(O)CN3CCc4ccccc4C3)c2)c1 (centres unmarked) [Compound D150] | 101 to 1000 nM | > 20000 nM |
| Cn1nccc1C(=O)Nc1cccc(OCC(O)CN2CCc3ccccc3C2)c1 (centres unmarked) [Compound D160] | 1000 to 10000 nM | > 20000 nM |
| O=C(Nc1cccc(OCC(O)CN2CCc3ccccc3C2)c1)c1cncnc1 (centres unmarked) [Compound D161] | 1000 to 10000 nM | > 20000 nM |
